The values below come from publication PMC6149869 (OncoTargets and therapy, 2018).

Data set [1] can be described thus: Clearance of sorafenib in cultured MHCC97-H cells. The format is in vitro ADME. As to conditions: human, Half-life (t1/2 value) of Sor, 1 µmol/L sorafenib.
For data set [2], the system named is MHCC97-H cells. Description: Subcutaneous HCC tumor growth model. The class given is in vivo, nude mice. The conditions noted are these: sorafenib 2 mg/kg oral; Figure 3.
Data set [3] relates to MHCC97-H cells. The experiment in a line: Intrahepatic HCC tumor growth model. The format is in vivo, nude mice. The conditions noted are these: sorafenib 2 mg/kg oral; Figure 4.
Another data set has as its system MDR-1. The experiment in a line: qPCR expression of PXR downstream gene MDR-1 in MHCC97-H cells. As to conditions: human. On the technique in general: Real-time PCR tracks product formation cycle by cycle.

Molecules are shown by their SMILES.

The term half-life denotes the time in which the quantity being followed falls by half. As to `CNC(=O)c1cc(Oc2ccc(NC(=O)Nc3ccc(Cl)c(C(F)(F)F)c3)cc2)ccn1` [Sor, sorafenib], the half-life at 1 µmol/L in data set [1] (miR-140-3p) was 21.6 ± 5.3 h; in data set [1] (miR-140-3p + inhibitor), 14.7 ± 5.87 h. Further, in the data set with MHCC97-H cells [2], the “Effect on subcutaneous growth of HCC cells in nude mice” value is “significantly inhibit the subcutaneous growth of HCC cells”. The “Effect on intrahepatic growth of MHCC97-H cells in livers of nude mice” value in the data set with MHCC97-H cells [3] is listed as “significantly inhibit the intrahepatic growth of MHCC97-H cells”.
What is called EC50 is the concentration that produces a half-maximal response. Low values mean higher potency in that assay, high ones lower potency in that assay. Regarding `CO[C@H]1/C=C/O[C@@]2(C)Oc3c(C)c(O)c4c(O)c(c(/C=N/N5CCN(C)CC5)c(O)c4c3C2=O)NC(=O)/C(C)=C\C=C\[C@H](C)[C@H](O)[C@@H](C)[C@@H](O)[C@@H](C)[C@H](OC(C)=O)[C@@H]1C` [rifampicin, Rifampicin], the 50% effective concentration (EC50) at 24 h with MDR-1 stood at 1.81 ± 0.29 µM.
